Experimental data from ChEMBL document CHEMBL5678811 (Invest New Drugs, 2014).
Active and inactive are the calls of the source. The rule behind the calls is not given here.

Assays:
MV4-11 [1] = assay: Cell cycle arrest in human MV4-11 cells assessed as accumulation of cells at G1-phase at 0.04 uM measured after 24 hrs by propidium iodide staining based flow cytometry (reference value: 61.42%); format: functional
MV4-11 [2] = assay: Cell cycle arrest in human MV4-11 cells assessed as accumulation of cells at S-phase at 0.04 uM measured after 24 hrs by propidium iodide staining based flow cytometry (reference value: 23.35%); format: functional
MV4-11 [3] = assay: Cell cycle arrest in human MV4-11 cells assessed as accumulation of cells at S-phase at 0.08 uM measured after 24 hrs by propidium iodide staining based flow cytometry (reference value: 23.35%); format: functional
MV4-11 [4] = assay: Cell cycle arrest in human MV4-11 cells assessed as accumulation of cells at G2/M-phase at 5 uM measured after 24 hrs by propidium iodide staining based flow cytometry (reference value: 15.23%); format: functional
MDA-MB-231 [5] = assay: Cell cycle arrest in human MDA-MB-231 cells assessed as accumulation of cells at G2/M-phase at 0.16 uM measured after 24 hrs by propidium iodide staining based flow cytometry (reference value: 11.46%); format: functional
MDA-MB-231 [6] = assay: Cell cycle arrest in human MDA-MB-231 cells assessed as accumulation of cells at S-phase at 0.16 uM measured after 24 hrs by propidium iodide staining based flow cytometry (reference value: 38.27%); format: functional
MDA-MB-231 [7] = assay: Cell cycle arrest in human MDA-MB-231 cells assessed as accumulation of cells at G1-phase at 2.5 uM measured after 24 hrs by propidium iodide staining based flow cytometry (reference value: 50.27%); format: functional
MDA-MB-231 [8] = assay: Cell cycle arrest in human MDA-MB-231 cells assessed as accumulation of cells at S-phase at 2.5 uM measured after 24 hrs by propidium iodide staining based flow cytometry (reference value: 38.27%); format: functional
MDA-MB-468 = assay: Cell cycle arrest in human MDA-MB-468 cells assessed as accumulation of cells at G2/M-phase at 0.16 uM measured after 24 hrs by propidium iodide staining based flow cytometry (reference value: 26.49%); format: functional
COLO 205 [9] = assay: In vivo inhibition of CDK4/CDK6 in human COLO 205 cells xenografted CD1 nu/nu mouse assessed as reduction in TopoIIalpha expression at 12.5 to 50 mg/kg, po administered via gavage measured after 24 hrs by Western blot analysis; format: functional, organism-based; details: dose 12.5-50 mg/kg
[10] = Toxicity in human COLO 205 cells xenografted CD1 nu/nu mouse assessed as change in jejunum histology at 50 mg/kg, po administered daily via gavage for 2 cycles of 3 weeks on/1 week rest and measured on day 41 to 69 by histopathological analysis; format: organism-based; details: in vivo, time 41-69 day
[11] = Toxicity in human COLO 205 cells xenografted CD1 nu/nu mouse assessed as change in ileum histology at 50 mg/kg, po administered daily via gavage for 2 cycles of 3 weeks on/1 week rest and measured on day 41 to 69 by histopathological analysis; format: organism-based; details: in vivo, time 41-69 day
[12] = Toxicity in human COLO 205 cells xenografted CD1 nu/nu mouse assessed as change in cecum histology at 50 mg/kg, po administered daily via gavage for 56 days and measured on day 41 to 69 by histopathological analysis; format: organism-based; details: in vivo, 1344 h, time 41-69 day
[13] = Toxicity in human COLO 205 cells xenografted CD1 nu/nu mouse assessed as decrease in red cell mass at 50 mg/kg, po administered daily via gavage for 2 cycles of 3 weeks on/1 week rest and measured on day 41 to 69 by hematological analysis; format: organism-based; details: in vivo, time 41-69 day
[14] = Toxicity in human Calu-6 cells xenografted CD1 nu/nu mouse assessed as body weight loss at 50 mg/kg, po administered once daily via gavage for 21 days measured twice per week during compound dosing in presence of gemcitabine; format: organism-based; details: in vivo, time 21 day
[15] = Plasma concentration at steady state in human COLO 205 cells xenografted po dosed CD1 nu/nu mouse; format: ADME, organism-based; details: in vivo
[16] = Inhibition of recombinant human full-length N-terminal 6His-tagged/beta-subunit N-terminal GST tagged CK2 expressed in Sf21 insect cells at 200 nM using casein kinase 2 substrate peptide relative to control; details: condition cancer
COLO 205 [17] = details: Mus musculus, CD1, dose 25-50 mg/kg, route po
COLO 205 [18] = details: Mus musculus, CD1, dose 50.0 mg/kg, route po
COLO 205 [19] = details: Mus musculus, CD1, dose 50.0 mg/kg, route po; remark: listed apart in the source
COLO 205 [20] = details: Homo sapiens, dose 25-100 mg/kg, route po, time 35.0 day
Calu-6 [21] = details: Homo sapiens, dose 50.0 mg/kg, route po, time 21.0 day
Calu-6 [22] = details: Homo sapiens, dose 50.0 mg/kg, route po, time 16.0 day
Mus musculus [23] = species: Mus musculus; details: CD1, dose 50.0 mg/kg, route po, time 22.0 day
Mus musculus [24] = species: Mus musculus; details: CD1, dose 50.0 mg/kg, route po, time 17.0 day
[25] = target: T1, Dual specificity tyrosine-phosphorylation-regulated kinase 2 (Homo sapiens) (UniProt Q92630); details: Sf21, dose 200.0 nM
T1 sequence (whole entry): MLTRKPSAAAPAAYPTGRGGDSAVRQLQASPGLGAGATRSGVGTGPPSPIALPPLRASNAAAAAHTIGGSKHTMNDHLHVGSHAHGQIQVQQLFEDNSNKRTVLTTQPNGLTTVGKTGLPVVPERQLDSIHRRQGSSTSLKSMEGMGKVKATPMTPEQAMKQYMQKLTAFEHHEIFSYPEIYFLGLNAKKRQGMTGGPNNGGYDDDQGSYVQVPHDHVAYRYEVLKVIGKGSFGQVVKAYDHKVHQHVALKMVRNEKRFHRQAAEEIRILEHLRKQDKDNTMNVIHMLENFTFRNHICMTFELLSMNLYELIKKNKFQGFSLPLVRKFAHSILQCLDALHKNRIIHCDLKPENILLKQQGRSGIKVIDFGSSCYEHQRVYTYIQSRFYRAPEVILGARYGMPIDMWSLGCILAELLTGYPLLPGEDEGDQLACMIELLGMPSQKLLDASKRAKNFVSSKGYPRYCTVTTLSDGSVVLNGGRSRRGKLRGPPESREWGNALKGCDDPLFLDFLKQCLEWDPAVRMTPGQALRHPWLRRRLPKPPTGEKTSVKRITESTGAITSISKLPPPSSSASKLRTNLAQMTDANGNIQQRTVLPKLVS
Description: Inhibition of recombinant human full-length 6His-tagged DYRK2 expressed in baculovirus infected Sf21 insect cells at 200 nM using casein as substrate relative to control

[26] = target: Cyclin-dependent kinase 5/CDK5 activator 1 (Homo sapiens) (UniProt Q00535+Q15078); details: Sf21, dose 200.0 nM
Description: Inhibition of recombinant human full-length N-terminal His6-tagged cdk5/N-terminal GST-tagged p35 expressed in baculovirus infected Sf21 cells at 200 nM using histone H1 as substrate relative to control

[27] = target: Mitogen-activated protein kinase 10 (Homo sapiens) (UniProt P53779); details: Sf21, dose 200.0 nM
Sequence of Mitogen-activated protein kinase 10 (Homo sapiens) (P53779 whole entry): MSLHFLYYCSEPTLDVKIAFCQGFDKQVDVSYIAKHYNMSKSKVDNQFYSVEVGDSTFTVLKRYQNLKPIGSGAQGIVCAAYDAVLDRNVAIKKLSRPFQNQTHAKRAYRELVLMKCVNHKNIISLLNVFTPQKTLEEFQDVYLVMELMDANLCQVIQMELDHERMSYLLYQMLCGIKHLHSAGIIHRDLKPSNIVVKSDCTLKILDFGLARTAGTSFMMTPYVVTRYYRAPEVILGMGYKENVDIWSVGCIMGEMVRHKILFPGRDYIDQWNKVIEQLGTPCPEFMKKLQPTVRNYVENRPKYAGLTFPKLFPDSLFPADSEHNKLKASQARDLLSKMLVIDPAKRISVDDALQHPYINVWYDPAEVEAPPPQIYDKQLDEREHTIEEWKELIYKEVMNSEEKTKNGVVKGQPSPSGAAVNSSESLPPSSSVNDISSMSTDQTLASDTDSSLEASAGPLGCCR
Description: Inhibition of recombinant human N-terminal His6-tagged JNK3 expressed in baculovirus infected Sf21 insect cells relative to control

Sequence of Cyclin-dependent kinase 5/CDK5 activator 1 (Homo sapiens) (Q00535 whole entry): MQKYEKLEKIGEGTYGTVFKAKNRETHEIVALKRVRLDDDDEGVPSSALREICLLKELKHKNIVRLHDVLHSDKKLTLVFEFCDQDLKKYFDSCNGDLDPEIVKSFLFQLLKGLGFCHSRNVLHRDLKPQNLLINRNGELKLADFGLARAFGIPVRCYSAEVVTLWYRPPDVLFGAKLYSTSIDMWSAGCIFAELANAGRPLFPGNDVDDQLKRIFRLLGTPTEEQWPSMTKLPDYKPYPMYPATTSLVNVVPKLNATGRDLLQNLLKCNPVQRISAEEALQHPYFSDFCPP
Sequence of Cyclin-dependent kinase 5/CDK5 activator 1 (Homo sapiens) (Q15078 99-307 partner limits assumed): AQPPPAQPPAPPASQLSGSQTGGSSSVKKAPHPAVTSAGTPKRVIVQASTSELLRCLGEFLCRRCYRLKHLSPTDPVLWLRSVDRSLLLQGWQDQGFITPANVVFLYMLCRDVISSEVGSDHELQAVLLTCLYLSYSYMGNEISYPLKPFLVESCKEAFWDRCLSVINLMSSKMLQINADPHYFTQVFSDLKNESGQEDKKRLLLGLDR

For `CCN1CCN(Cc2ccc(Nc3ncc(F)c(-c4cc(F)c5nc(C)n(C(C)C)c5c4)n3)nc2)CC1` [ABEMACICLIB], which Activity (MV4-11 [1]) is on record?
Its Activity is 77.47%.

What about the Activity (MV4-11 [2]) of the same compound?
Its Activity is 16.32%.

And the Activity (MV4-11 [3])?
Its Activity is 8.59%.

What about the Activity (MV4-11 [4]) of the same compound?
Its Activity is 0.54%.

And the Activity (MDA-MB-231 [5])?
Its Activity is 4.02%.

What about the Activity (MDA-MB-231 [6]) of the same compound?
The Activity was 17.12%.

And the Activity (MDA-MB-231 [7])?
Its Activity is 86.04%.

What about the Activity (MDA-MB-231 [8]) of the same compound?
The Activity was 8.19%.

What about the Activity (MDA-MB-468) of the same compound?
The Activity was 24.55%.

And the inhibition (COLO 205 [9])?
Its inhibition is “Active”.

And the Activity [10]?
The Activity was “Non-Toxic”.

And the Activity [11]?
The Activity was “Non-Toxic”.

And the Activity [12]?
The Activity was “Non-Toxic”.

What about the Activity [13] of the same compound?
The Activity was “Non-Toxic”.

And the Activity [14]?
The Activity was “Non-Toxic”.

What about the Cpss [15] of the same compound?
The Cpss was ~ 400 nM.

And the inhibition at 0.2 µM [16]?
Its inhibition at 0.2 µM is over 90%.

And the inhibition (COLO 205 [17])?
Its inhibition is “Dose-Dependent Effect”.

And the inhibition (COLO 205 [18])?
Its inhibition is “Active”.

And the inhibition (COLO 205 [19])?
The inhibition was “inactive”.

And the TGI (COLO 205 [20])?
The TGI was “Dose-Dependent Effect”.

What about the TGI (Calu-6 [21]) of the same compound?
The TGI was “Active”.

And the TGI (Calu-6 [22])?
Its TGI is “Active”.

And the inhibition (Mus musculus [23])?
Its inhibition is “inactive”.

What about the inhibition (Mus musculus [24]) of the same compound?
The inhibition was “inactive”.

What about the inhibition [25] of the same compound?
Its inhibition is over 90%.

What about the inhibition [26] of the same compound?
The inhibition was over 90%.

And the inhibition [27]?
Its inhibition is over 90%.
